According to ChEMBL document CHEMBL5096229, “A 1,2,3-Triazole Derivative of Quinazoline Exhibits Antitumor Activity by Tethering RNF168 to SQSTM1/P62” (J Med Chem, 2022):
pIC50, pKd: −log10 of the molar value. Activity calls are given as the source filed them. No cut-off for these calls is given here.

Experiments:
[1] = Induction of P62 to RNF168 protein-protein interaction (unknown origin) by MST assay; parameters: species or system Homo sapiens
[2] = tested on: HCT-116; assay: Induction of cell cycle arrest in human HCT-116 cells assessed as accumulation at S phase at 5 uM after 24 hrs by propidium iodide-staining based flow cytometry (reference value: 17.17 +/- 0.18%); format: functional
[3] = tested on: MCF7; assay: Cytotoxicity against human MCF7 cells assessed as reduction in cell viability incubated for 72 hrs by MTS assay; format: functional, cell-based; conditions: MCF7, 72 h
[4] = tested on: HCT-116; assay: Induction of P62 to RNF168 protein-protein interaction in human HCT-116 cells lysates by co-immunoprecipitation assay; format: subcellular
[5] = tested on: A-375; assay: Cytotoxicity against human A-375 cells assessed as reduction in cell viability incubated for 72 hrs by MTS assay; format: functional, cell-based; conditions: A-375, 72 h
[6] = AUCt in BALB/c mouse at 10 mg/kg; format: ADME, organism-based; parameters: dose 10 mg/kg; conditions: in vivo
[7] = tested on: U2OS; assay: Inhibition of homologous recombinant repair in human U2OS cells assessed as I-SceI induced double […] break pretreated with I-SceI for 36 hrs followed by compound addition and measured after 12 hrs; format: functional, cell-based; conditions: dose 0.625-2.5 µM, DDE = dose-dependent effect
[8] = tested on: MGC-803; assay: Cytotoxicity against human MGC-803 cells assessed as reduction in cell viability incubated for 72 hrs by MTS assay; format: functional, cell-based; conditions: MGC-803, 72 h
[9] = tested on: HCT-116; assay: Antitumor activity against human HCT-116 cells xenografted with BALB/c nude mouse assessed as increase in cleaved PARP1 positive tumor cells at 5 to 10 mg/kg, ip administered every 3 days upto 22 days by immuno histochemistry assay; format: functional, organism-based; conditions: dose 5-10 mg/kg, time <= 22.0 day
[10] = AUCt in BALB/c mouse at 5 mg/kg; format: ADME, organism-based; parameters: dose 5 mg/kg; conditions: in vivo
[11] = biological target: E3 ubiquitin-protein ligase RNF168 (Homo sapiens, UniProt Q8IYW5); assay: Inhibition of RNF168 activity in human HCT-116 cells assessed as reduction in gamma-H2AX ubiquitination by immunoblotting assay; format: cell-based
Chain of E3 ubiquitin-protein ligase RNF168 (Q8IYW5 whole entry): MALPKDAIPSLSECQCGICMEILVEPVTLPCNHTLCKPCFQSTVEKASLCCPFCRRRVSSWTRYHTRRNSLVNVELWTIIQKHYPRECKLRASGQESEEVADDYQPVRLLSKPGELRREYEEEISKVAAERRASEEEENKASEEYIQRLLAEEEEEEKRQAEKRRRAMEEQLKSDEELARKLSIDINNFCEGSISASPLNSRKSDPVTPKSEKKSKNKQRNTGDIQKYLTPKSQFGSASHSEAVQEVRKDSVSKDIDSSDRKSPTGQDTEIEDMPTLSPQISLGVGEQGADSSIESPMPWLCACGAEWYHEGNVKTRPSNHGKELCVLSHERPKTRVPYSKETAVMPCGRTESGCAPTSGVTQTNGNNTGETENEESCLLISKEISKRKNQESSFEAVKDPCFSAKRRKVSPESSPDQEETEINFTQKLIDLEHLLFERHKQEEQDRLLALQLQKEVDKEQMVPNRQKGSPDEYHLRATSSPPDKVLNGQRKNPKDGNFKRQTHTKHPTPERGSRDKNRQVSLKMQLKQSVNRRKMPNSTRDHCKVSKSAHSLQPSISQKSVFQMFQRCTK

[12] = biological target: T1, Glucocorticoid receptor (Homo sapiens) (UniProt P04150); assay: Inhibition of GR (unknown origin) at 10 uM
T1 sequence (whole entry): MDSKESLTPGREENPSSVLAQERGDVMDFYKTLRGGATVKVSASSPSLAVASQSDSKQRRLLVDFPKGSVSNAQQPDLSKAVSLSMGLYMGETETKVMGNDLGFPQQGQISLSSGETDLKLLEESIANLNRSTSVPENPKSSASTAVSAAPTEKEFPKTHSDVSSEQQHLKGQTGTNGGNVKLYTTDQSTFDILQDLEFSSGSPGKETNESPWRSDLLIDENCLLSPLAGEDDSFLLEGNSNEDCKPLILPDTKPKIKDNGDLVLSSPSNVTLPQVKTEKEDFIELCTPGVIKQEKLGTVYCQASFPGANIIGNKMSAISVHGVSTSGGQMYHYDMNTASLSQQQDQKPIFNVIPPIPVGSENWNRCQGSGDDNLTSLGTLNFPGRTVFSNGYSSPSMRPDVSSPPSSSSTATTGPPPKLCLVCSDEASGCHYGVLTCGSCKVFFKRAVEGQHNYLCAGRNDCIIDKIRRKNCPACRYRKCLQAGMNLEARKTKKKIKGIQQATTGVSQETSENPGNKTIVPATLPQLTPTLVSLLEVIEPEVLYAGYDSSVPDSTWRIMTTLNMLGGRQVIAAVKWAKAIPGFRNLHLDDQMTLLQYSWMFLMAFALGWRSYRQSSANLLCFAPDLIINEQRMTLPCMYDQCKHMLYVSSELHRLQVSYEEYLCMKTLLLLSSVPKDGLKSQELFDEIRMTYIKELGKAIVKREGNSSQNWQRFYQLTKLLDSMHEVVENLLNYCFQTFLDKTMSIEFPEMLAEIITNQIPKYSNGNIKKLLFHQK

[13] = tested on: HCT-116; assay: Cytotoxicity against human HCT-116 cells assessed as reduction in cell viability incubated for 72 hrs by MTS assay; format: functional, cell-based; conditions: HCT-116, 72 h
[14] = tested on: HCT-116; assay: Induction of cell cycle arrest in human HCT-116 cells assessed as accumulation at G0/G1 phase at 1 uM after 24 hrs by propidium iodide-staining based flow cytometry (reference value: 58.01 +/- 1.77%); format: functional
[15] = Cytotoxicity against human MCF-10A cells assessed as reduction in cell viability incubated for 72 hrs by MTS assay; format: toxicity, cell-based
[16] = tested on: Bacteria; assay: Binding affinity to N-terminal His-tagged bacteria P62; conditions: filed as activator
[17] = tested on: HCT-116; assay: Induction of cell cycle arrest in human HCT-116 cells assessed as accumulation at G0/G1 phase at 2 uM after 24 hrs by propidium iodide-staining based flow cytometry (reference value: 58.01 +/- 1.77%); format: functional
[18] = Metabolic stability in human liver microsomes assessed as clearance at 0.5 uM by LC-MS analysis; format: ADME, Microsome
[19] = tested on: HCT-116; assay: Induction of P62 to RNF168 protein-protein interaction in human HCT-116 cells lysates chromatin enriched fraction by immunoblotting assay; format: subcellular
[20] = Metabolic stability in human liver microsomes assessed as half life at 0.5 uM by LC-MS analysis; format: ADME, Microsome
[21] = biological target: Sequestosome-1 (Homo sapiens, UniProt Q13501); assay: Binding affinity to N-terminal P62 (1 to 335 residues) in human HCT-116 cells lysates; format: subcellular; conditions: filed as activator
Chain of Sequestosome-1 (Q13501 whole entry, the tested form may be a part): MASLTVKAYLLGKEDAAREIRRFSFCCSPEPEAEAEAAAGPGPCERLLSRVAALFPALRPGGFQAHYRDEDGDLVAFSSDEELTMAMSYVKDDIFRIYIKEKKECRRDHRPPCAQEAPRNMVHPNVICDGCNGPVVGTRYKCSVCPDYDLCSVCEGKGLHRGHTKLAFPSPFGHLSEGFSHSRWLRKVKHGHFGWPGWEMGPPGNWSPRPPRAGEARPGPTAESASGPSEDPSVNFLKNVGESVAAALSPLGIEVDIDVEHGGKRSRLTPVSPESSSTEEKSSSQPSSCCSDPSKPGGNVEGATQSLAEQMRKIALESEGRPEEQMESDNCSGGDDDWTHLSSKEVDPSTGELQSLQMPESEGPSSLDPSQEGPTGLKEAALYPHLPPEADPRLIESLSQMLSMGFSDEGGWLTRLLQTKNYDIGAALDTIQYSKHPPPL

[22] = Toxicity in BALB/c nude mouse assessed as animal death 25 mg/kg, ip after 7 days; format: organism-based; conditions: in vivo, 168 h, time 7 day
[23] = Toxicity in BALB/c nude mouse assessed as changes in body weight at 5 to 10 mg/kg, ip administered every 3 days upto 22 days; format: organism-based; conditions: in vivo, 528 h, dose 5-10 mg/kg, time < 22 day
[24] = Half life in BALB/c mouse at 20 mg/kg; format: ADME, organism-based; conditions: in vivo
[25] = tested on: HCT-116; assay: Induction of x-ray sensitivity in human HCT-116 cells; format: functional, cell-based
[26] = Toxicity in BALB/c nude mouse assessed as maximum tolerable dose; conditions: in vivo
[27] = tested on: HCT-116; assay: Induction of cell cycle arrest in human HCT-116 cells assessed as accumulation at G2/M phase at 5 uM after 24 hrs by propidium iodide-staining based flow cytometry (reference value: 23.25 +/- 1.38%); format: functional
[28] = tested on: HCT-116; assay: Antitumor activity against human HCT-116 cells xenografted in ip dosed BALB/c nude mouse assessed as tumor growth inhibition; format: functional, organism-based; conditions: dose 5.0 mg/kg, DDE = dose-dependent effect
[29] = tested on: MDA-MB-231; assay: Cytotoxicity against human MDA-MB-231 cells assessed as reduction in cell viability incubated for 72 hrs by MTS assay; format: functional, cell-based; conditions: MDA-MB-231, 72 h
[30] = Half life in BALB/c mouse at 5 mg/kg; format: ADME, organism-based; conditions: in vivo
[31] = Cmax in BALB/c mouse at 5 mg/kg; format: ADME, organism-based; parameters: dose 5 mg/kg; conditions: in vivo

Compound `COc1cc(-n2cc(-c3ccc4nc(N)nc(N)c4c3)nn2)cc(OC)c1OC` has a pKd [1] of 6.05, an Activity [2] of 18.77% and a pIC50 [3] of 5.55. The Activity [4] was “Active”, the pIC50 [5] was 5.71 and the AUC(0-t) [6] was 408 ng·h/mL. For the same compound, the inhibition [7] was “Dde”, the pIC50 [8] was 5.73 and the Activity [9] was “Active”. The AUC(0-t) [10] was 215 ng·h/mL, the inhibition [11] was “Active” and the inhibition [12] was “Active”. It also gave a pIC50 [13] of 6.44, an Activity [14] of 53% and an IC50 at 72 h [15] of 6980 nM. For the same compound, the Activity [16] was “Active”, the Activity [17] was 52.1% and the CLH [18] was 1.87 mL/min. The Activity [19] was “Active”, the half-life at 0.5 µM [20] was 7.17 h and the Activity [21] was “Active”. For the same compound, the Activity [22] was “Toxic”, the Activity [23] was “Non-Toxic” and the half-life [24] was 22.1 h. The Activity [25] was “Active”, the MTD [26] was 12.5 mg/kg and the Activity [27] was 35.34%. For the same compound, the Activity [28] was “Dde”, the pIC50 [29] was 5.93 and the half-life [30] was 16.2 h. The Cmax [31] was 26.1 ng/mL.
